# Results: patent US11963848B2, “Impactor platform allowing freefall upon impact” (George Mason University, priority 2019, dated 2024)
# System: C57Bl/6J wild-type mice with rmTBI
# Test: Morris Water Maze assessment for spatial memory in rmTBI mice, intranasal zinc vs vehicle
# Assay type: in vivo
# Protocol: Subjects were C57Bl/6J wild-type mice that were 6 weeks of age at the time of the first stressor. All mice received rmTBI delivered using a system 100/200.
# For 7 days, stress groups were subject to a rotation of varied stressors, including: • 1. Deprivation of food, water, and enrichment for 8 hours. • 2. Exposure to soiled rat bedding in home cage. • 3. Exposure to bobcat urine in home cage. • 4. Forced swim in ice bath for 5 minutes. • 5. Home cage flooded with water. • 6. Home cage placed on orbital shaker for 5 minutes. • 7. Loud static noise for 1 hour. • 8. Restraint in conical Falcon tube for 1 hour.
# A second week of varied stressors was administered concurrently with rmTBI. The rmTBI closed-head injury was induced by Leica One Controlled Cortical Impact device with falling platform as in system 100, causing the mouse to rotate upon impact. Anesthetized mice received one mTBI every 48 hours over the course of 7 days for a total of 4 injuries. Immediately following injury, mice were intranasally administered either zinc treatment or vehicle control (water).
# Changes in behavior were also analyzed, using the Morris Water Maze assessment for spatial memory over 7 days. In this measure of learning and memory, the mouse is tested for the ability to locate a platform in a pool of water using visual cues. Days 1-6 had 3 trials, and days 2, 4 and 6 used a hidden platform for trial 3. Day 7 comprised a 24-hr probe trial.
substance,measurement,setting,value
zinc,time spent in the quadrant of the maze where the platform was present (Morris water maze),"day 6, non-stressed mice only, trending stress x zinc interaction F(1,39)=4.002, p=0.052, zinc intranasally after injury vs vehicle, FIG. 11",beneficial effect
same,number of platform crossings (Morris water maze),"effect only for stressed mice, stress x zinc interaction F(1,39)=4.207, p=0.047, zinc intranasally after injury vs vehicle, FIG. 10",significantly increased
same,latency in locating the maze platform (Morris water maze),"stressed and non-stressed, zinc intranasally immediately after each injury vs vehicle control (water), F(1,39)=2.184, p=0.147, FIG. 9",did not differ
